Values joined by “and” are separate entries in the source; they are usually repeats but may differ in a detail not shown here. Identical values can stand only once.
Legend:
Flt-3 = molecular target: T1, Flt-3 (Homo sapiens, UniProt P36888); assay: Z-Lyte Kinase Assay of Flt-3; format: biochemical; settings: Flt3 kinase
T1 sequence (P36888 27-993): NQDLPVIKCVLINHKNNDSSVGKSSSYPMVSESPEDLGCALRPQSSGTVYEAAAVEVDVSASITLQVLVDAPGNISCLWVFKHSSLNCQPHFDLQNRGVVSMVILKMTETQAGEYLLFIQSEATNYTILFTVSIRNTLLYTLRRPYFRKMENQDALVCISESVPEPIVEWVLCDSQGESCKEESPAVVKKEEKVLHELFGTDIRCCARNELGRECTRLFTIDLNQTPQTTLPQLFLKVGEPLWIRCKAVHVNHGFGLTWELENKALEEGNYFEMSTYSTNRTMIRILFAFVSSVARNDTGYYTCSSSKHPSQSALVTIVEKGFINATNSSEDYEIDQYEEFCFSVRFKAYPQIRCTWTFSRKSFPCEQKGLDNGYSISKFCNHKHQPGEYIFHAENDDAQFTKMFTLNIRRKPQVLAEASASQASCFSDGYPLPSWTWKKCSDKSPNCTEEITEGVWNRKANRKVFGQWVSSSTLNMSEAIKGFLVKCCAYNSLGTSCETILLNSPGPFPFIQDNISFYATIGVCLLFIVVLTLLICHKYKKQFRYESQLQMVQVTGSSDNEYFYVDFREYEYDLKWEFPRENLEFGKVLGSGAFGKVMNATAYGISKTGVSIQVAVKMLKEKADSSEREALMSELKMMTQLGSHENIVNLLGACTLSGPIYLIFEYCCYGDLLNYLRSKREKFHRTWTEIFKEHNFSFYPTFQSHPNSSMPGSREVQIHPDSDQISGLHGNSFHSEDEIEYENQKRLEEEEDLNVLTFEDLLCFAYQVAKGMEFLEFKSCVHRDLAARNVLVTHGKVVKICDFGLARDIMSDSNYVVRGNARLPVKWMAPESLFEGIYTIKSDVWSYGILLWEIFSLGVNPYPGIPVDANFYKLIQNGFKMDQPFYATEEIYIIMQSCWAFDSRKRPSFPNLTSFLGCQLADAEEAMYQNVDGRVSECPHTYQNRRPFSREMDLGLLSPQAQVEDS
Description: Z-Lyte Kinase Assay of Flt-3:
Serially dilute the test compounds to 4 folds of the concentrations desired, keeping the DMSO concentration at 8%. The final concentrations were 3, 1, 0.33, 0.11, 0.037, 0.012, 0.004, 0.0014 μM, and the final concentration of DMSO was 2%.
Prepare Kinase/Peptide Mixture by diluting the kinase to 0.12 μg/mL and the Z-LYTE™ Tyr 2 peptide to 4 μM in 1.33× Kinase Buffer. Mix gently by pipetting.
Prepare ATP Solution by diluting the 10 mM of ATP in 1.33× Kinase Buffer to 1.88 mM.
• a. Add 2.5 μL of 4× test Cpds to each well except C1, C2, C3 wells • Add 2.5 μL of 8% DMSO to C1, C2, C3 wells • b. Put the 384-plate on ice • c. Add 5 μL of P/K mixture to each test Cpd wells and C1, C2 wells • d. Add 5 μL of PP Solution to C3 well • e. Add 2.5 μL of 1.33× kinase buffer to C1 and C3 wells • f. Add 2.5 μL of 4×ATP Solution to each test Cpd wells and C2 well, respectively. • Shake the plate for 30 Sec and centrifuge (1500 rpm, 1 min) • g. Seal the plate to protect from the light and incubate the plate for 1 hour at RT (25-30° C.).
• a. Add 5 μL of the Development solution to all wells • b. Shake the plate for 30 Sec and centrifuge (1500 rpm, 1 min) • c. Seal the plate to protect from the light and incubate the plate for 1 hour at RT (25-30° C.).
• a. […]
IC50 Value: determined with add-in software for Microsoft Excel, XLfit™ (version 2.0) from ID Business Solutions (Guildford, UK)

RBL-2H3 cells = assay: IgE-induced Beta-hexosaminidase secretion in RBL-2H3 cells; format: cell-based; settings: Rattus norvegicus, RBL-2H3, IgE-induced Beta-hexosaminidase secretion, DNP-BSA stimulation
Procedure, shortened: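 RBL-2H3 cells sensitized overnight with 0.5 ug/ml SPE-7 IgE, washed, preincubated with compound 20 min at 37° C, then stimulated with DNP-BSA (150 ng/mL stock) for 45 min. Released β-hexosaminidase measured on supernatant with 1 mM 4-nitrophenyl N-acetyl-β-D-glucosaminide, pH 4.5, 1.5 hr at 37° C; absorbance 405 nm after carbonate quench.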

Syk kinase = Syk kinase (Homo sapiens, UniProt P43405); assay: SYK Enzymatic Assay (Z-LYTE Tyr 2 peptide); format: biochemical; settings: 8 concentrations 1 μM down to 0.0003 μM
Procedure, shortened: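 Z-LYTE format using Tyr 2 peptide. After the 1 h room-temperature kinase reaction, development reagent was added for 1 h, then stop reagent. Fluorescence was read at 445 and 520 nm. Compounds were tested at 8 concentrations, 1 μM down to 0.0003 μM (1:3 dilutions).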

IC50 (Flt-3) [nM]	IC50 (RBL-2H3 cells) [nM]	IC50 (Syk kinase)	Structure (SMILES)
885	52	30 nM	CC(=O)N1CCO[C@H](COc2nc(-c3ccc4c(c3)CCOC4(C)C)cc3nccnc23)C1 [Compound 300]
880	37	32 nM and 28 nM	CC(C)(O)c1ccc(-c2cc3nccnc3c(OC[C@@H]3CN(S(C)(=O)=O)CCO3)n2)cc1 [Compound 219]
